From PMC6142817, “New Urea Derivatives Are Effective Anti-senescence Compounds Acting Most Likely via a Cytokinin-Independent Mechanism” (Frontiers in Plant Science, 2018)
Read-outs that look alike come from different tables or passages of the source. Values belong to the compound of their own block, whether it stands above or below them.

How the values were obtained:
[1] = system: cytokinin-dependent tobacco callus; test: Tobacco callus bioassay; assay type: cell-based; conditions: for inhibition of callus growth at the highest concentration tested: 100 μM
Protocol: (§1) Tobacco callus, Amaranthus and Wheat leaf senescence assay (WLSA) were performed as described by Holub et al. ([1998]) including the number of repetitions in each assay. An exception to the published protocols was that the tobacco callus assay was performed in 6-well microtiter plates (with each well containing 3 ml of Murashige Skoog medium into which 0.1 g of callus was added). Each compound was tested at least twice in each assay and in a wider concentration range to obtain concentration-dependent activity curves. IC50 means compound concentration at which chlorophyll degradation is inhibited by 50% and EC50 means half the maximal effective concentration.

[2] = system: Amaranthus caudatus cotyledon-hypocotyl explants; test: Amaranthus bioassay (betacyanin synthesis); assay type: cell-based, Amaranthus caudatus var. atropurpurea
Protocol: as §1
(§2) Amaranthus assay evaluates the induction of betacyanin synthesis in Amaranthus (Amaranthus caudatus var. atropurpurea) cotyledons, which is induced by cytokinins (Bamberger and Mayer, [1960]). The WLSA evaluates the ability of compounds to retard chlorophyll degradation in excised wheat leaves that are kept in the dark. The wheat leaf segments (Triticum aestivum cv. Hereward) were used in all other experiments requiring wheat. Arabidopsis (Arabidopsis thaliana) leaf senescence assay was performed with detached leaves from 30-day-old plants, which were grown in soil in phytotron under standard conditions (Rivero et al., [2014]). Four leaves of a combined weight of 60 mg were placed in a six-well plate and stored in the dark for 12 days at 22°C. The leaves (except the fresh control leaves) floated on water solutions of tested compounds. Fresh control leaves were leaves detached from a plant and immediately used for chlorophyll determination. The duration of the senescence assay of Arabidopsis leaves was prolonged to highlight the difference in chlorophyll content between a negative control and treatments. Arabidopsis leaves were losing chlorophyll more slowly than wheat leaves. Chlorophyll extraction and spectrophotometric determination of its content was done according to Holub et al. ([1998]).

[3] = system: excised wheat leaves (chlorophyll degradation in the dark); test: Wheat leaf senescence assay (WLSA); assay type: cell-based, Triticum aestivum cv. Hereward
Protocol: as §1, §2

[4] = system: detached Arabidopsis leaves (chlorophyll loss in the dark); test: Arabidopsis leaf senescence assay; assay type: cell-based, Arabidopsis thaliana; conditions: 1 μM, 12 days in the dark
Excerpt: as §2

[5] = system: ARR5:GUS reporter gene; test: Arabidopsis ARR5:GUS reporter gene assay; assay type: in vivo, Arabidopsis thaliana; conditions: for EC50: Arabidopsis thaliana, read-out: ARR5:GUS activation EC50; for ARR5:GUS activation (in words): in vivo; for ARR5:GUS activity, % of BA activity: 1 μM BA = 100%
Protocol: Transgenic Arabidopsis plants (Arabidopsis thaliana (L.) Heynh. accession Wassilewskija) harboring the GUS reporter gene (gene for β-glucuronidase) fused to 1.6 kb of the ARR5 (PARR5−GUS) gene promoter (D'Agostino et al., [2000]) were kindly provided by professor Thomas Schmülling. The assay was performed according to Romanov et al. ([2002]). β-Glucuronidase (GUS) activity was quantitatively determined by measuring fluorescence of 4-methylumbelliferyl (MU) on a Synergy H4 hybrid reader (Biotek, Winooski, VT) with excitation and emission wavelengths of 365 and 445 nm, respectively. GUS specific activity was determined as nmol MU × mg protein^−1 × h^−1. This was calculated by dividing the relative fluorescence units (obtained per hour) by protein content of the same sample. Protein extraction was done as described by Romanov et al. ([2002]) but its content was determined using a bicinchoninic acid reagent (Smith et al., [1985]). Finally we expressed the GUS activity in samples as a relative percentage, the activity of 1 μM BA being set as 100% activation. The concentration-dependent activity curves and EC50 values (for TDZ, tZ, BA, TD-iP, and TD-tZ) were constructed using Scion image program.

[6] = target: T1, CRE1/AHK4 (Arabidopsis thaliana, UniProt Q9C5U0); conditions: read-out: CRE1/AHK4 receptor activation EC50 (previous study); ref Nisler et al., [2010]; cited from earlier work
T1 sequence (Q9C5U0 whole entry): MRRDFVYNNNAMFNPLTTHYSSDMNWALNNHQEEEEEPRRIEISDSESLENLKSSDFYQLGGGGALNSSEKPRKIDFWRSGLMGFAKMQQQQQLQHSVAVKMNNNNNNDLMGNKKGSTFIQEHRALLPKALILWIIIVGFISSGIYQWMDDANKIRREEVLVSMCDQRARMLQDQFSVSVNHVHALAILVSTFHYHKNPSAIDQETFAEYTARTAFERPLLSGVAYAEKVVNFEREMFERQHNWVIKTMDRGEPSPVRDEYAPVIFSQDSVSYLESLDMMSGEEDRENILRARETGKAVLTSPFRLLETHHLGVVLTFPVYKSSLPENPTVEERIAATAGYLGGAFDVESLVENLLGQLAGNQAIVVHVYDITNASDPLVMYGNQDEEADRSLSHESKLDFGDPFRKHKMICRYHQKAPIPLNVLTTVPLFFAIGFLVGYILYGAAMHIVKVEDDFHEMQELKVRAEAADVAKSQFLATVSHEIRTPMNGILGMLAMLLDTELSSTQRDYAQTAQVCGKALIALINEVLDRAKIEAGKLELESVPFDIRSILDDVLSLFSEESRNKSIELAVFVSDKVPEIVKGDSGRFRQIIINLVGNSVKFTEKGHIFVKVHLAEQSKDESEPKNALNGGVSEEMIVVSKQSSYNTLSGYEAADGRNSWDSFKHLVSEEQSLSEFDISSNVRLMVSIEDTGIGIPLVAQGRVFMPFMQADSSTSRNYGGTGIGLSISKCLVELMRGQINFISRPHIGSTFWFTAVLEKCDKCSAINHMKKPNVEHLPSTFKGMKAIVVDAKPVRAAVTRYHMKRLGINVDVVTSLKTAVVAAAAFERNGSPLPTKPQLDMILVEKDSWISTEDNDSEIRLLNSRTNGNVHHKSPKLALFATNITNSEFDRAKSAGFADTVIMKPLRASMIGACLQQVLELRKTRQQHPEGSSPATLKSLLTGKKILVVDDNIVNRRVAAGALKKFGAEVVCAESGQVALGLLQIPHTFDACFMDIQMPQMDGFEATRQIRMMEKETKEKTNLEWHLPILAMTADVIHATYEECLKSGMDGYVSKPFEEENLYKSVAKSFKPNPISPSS

[7] = target: T1, CRE1/AHK4; test: Cytokinin receptor activation assay in E. coli (CRE1/AHK4); assay type: cell-based; set-up: expressed in transfected cells; host or cells: Escherichia coli strain KMI001, plasmid pIN-IIIAHK4
Excerpt: (§3) The activity of this enzyme is finally measured in the assay and corresponds to the ability of the tested compound to activate this cytokinin receptor. Both assays were done at least twice and the presented graphs are the most representative examples.

[8] = target: T2, AHK3 (Arabidopsis thaliana, UniProt Q9C5U1); test: Cytokinin receptor activation assay in E. coli (AHK3); assay type: cell-based
T2 construct: expressed in transfected cells; host or cells: Escherichia coli strain KMI001, plasmid pSTV28-AHK3
T2 sequence (Q9C5U1 1-1036): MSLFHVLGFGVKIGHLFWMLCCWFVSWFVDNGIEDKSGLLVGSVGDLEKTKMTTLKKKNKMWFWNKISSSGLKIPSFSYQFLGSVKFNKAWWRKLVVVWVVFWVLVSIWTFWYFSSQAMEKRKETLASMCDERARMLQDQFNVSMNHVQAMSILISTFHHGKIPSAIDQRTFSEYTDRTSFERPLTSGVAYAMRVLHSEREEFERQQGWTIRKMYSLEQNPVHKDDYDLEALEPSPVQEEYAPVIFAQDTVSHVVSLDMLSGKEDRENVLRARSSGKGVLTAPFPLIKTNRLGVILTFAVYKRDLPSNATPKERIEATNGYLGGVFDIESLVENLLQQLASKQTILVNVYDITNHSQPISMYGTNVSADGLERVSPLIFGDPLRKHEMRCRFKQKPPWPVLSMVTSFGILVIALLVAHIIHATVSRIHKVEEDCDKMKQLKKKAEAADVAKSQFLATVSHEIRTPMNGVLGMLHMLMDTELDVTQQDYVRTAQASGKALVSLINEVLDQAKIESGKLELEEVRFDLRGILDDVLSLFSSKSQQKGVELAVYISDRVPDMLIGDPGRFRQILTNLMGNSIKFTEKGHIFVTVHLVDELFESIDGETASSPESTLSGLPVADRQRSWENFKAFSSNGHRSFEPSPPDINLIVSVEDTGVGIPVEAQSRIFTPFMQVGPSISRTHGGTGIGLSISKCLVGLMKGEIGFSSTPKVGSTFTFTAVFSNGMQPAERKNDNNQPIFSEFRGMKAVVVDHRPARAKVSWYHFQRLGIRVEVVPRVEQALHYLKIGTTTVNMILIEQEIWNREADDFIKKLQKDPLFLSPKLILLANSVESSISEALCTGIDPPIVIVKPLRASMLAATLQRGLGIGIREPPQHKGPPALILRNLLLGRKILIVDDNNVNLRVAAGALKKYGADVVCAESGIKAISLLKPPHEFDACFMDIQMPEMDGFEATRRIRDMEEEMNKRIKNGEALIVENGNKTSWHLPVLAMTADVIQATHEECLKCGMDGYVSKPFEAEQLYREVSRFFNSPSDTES
Excerpt: as §3

[9] = system: excised wheat leaves (chlorophyll degradation in the dark); conditions: read-out: WLSA IC50; ref Gajdošová et al., [2011]; cited from earlier work
[10] = Nicotiana tabacum, half the maximal effective concentration, N.A. = not active, read-out: Tobacco callus bioassay (EC50)
[11] = Amaranthus caudatus, betacyanin synthesis, N.A. = not active, read-out: Amaranthus bioassay (EC50)
[12] = Triticum aestivum, 120 h, detached wheat leaves in the dark, 5 days, concentration at which chlorophyll degradation is inhibited by 50%, read-out: Senescence bioassay (IC50)
[13] = half the maximal effective concentration, N.A. = not active
[14] = betacyanin synthesis, N.A. = not active
[15] = Nicotiana tabacum, read-out: Tobacco callus bioassay (EC50, μM)
[16] = Amaranthus caudatus, read-out: Amaranthus bioassay (EC50, μM)
[17] = Triticum aestivum, 120 h, read-out: Senescence bioassay (IC50, μM)
[18] = detached wheat leaves in the dark, 5 days, concentration at which chlorophyll degradation is inhibited by 50%, read-out: Senescence bioassay (IC50)
[19] = E. coli bacterial receptor assay, read-out: CRE1/AHK4 receptor activation EC50
[20] = E. coli bacterial receptor assay, read-out: AHK3 receptor activation EC50

EC50 [1, 10]: 2.4 µM | IC50 [3, 12]: 17 µM
Compound: C#CCNC(=O)Nc1cnns1 [Compound 12]
EC50 [2, 11]: 15.3 µM

Tobacco callus bioassay (EC50, μM) [1, 13]: completely inactive
Compound: CN(C)CCNC(=O)Nc1cnns1 [Compound 15]
Amaranthus bioassay (EC50, μM) [2, 14]: inactive | ARR5:GUS activation (in words) [5]: completely inactive

EC50 [1, 15]: 0.012 µM | IC50 [3, 17]: 30 µM | EC50 [7]: 0.35 µM | EC50 [5]: 0.009 µM | EC50 [8]: 0.066 µM
Compound: C/C(=C\CNc1ncnc2[nH]cnc12)CO [tZ, trans-zeatin, reference compound]
EC50 [2, 16]: 0.9 µM | EC50 [6]: 0.2 µM

EC50 [1, 10]: 1.6 µM | IC50 [3, 12]: < 10 µM | IC50 [3, 18]: 7.1 µM
Compound: C=CCNC(=O)Nc1cnns1 [Compound 13]
EC50 [2, 11]: 14.2 µM | ARR5:GUS activity, % of BA activity ([5]; compound at 10 μM): 55–65%

EC50 [1, 10]: 0.065 µM | IC50 [3, 12]: > 100 µM
Compound: CC(CO)CCNc1ncnc2nc[nH]c12 (stereo not drawn) [DHZ, dihydrozeatin, reference compound]
EC50 [2, 11]: 10 µM

EC50 ([1]; half the maximal effective concentration, N.A. = not active, read-out: Tobacco callus bioassay (EC50)): 0.013 µM | IC50 [3, 18]: > 200 µM
Compound: N^6-isopentenyladenine [iP, reference compound]
EC50 ([2]; betacyanin synthesis, N.A. = not active, read-out: Amaranthus bioassay (EC50)): 2 µM

Tobacco callus bioassay (EC50, μM) [1, 13]: completely inactive | IC50 [3, 12]: 83 µM
Compound: CCOCCNC(=O)Nc1cnns1 [Compound 11]
EC50 [2, 11]: > 100 µM | ARR5:GUS activation (in words) [5]: completely inactive

EC50 [1, 10]: 0.82 µM | IC50 [3, 12]: 56 µM
Compound: CC(CO)CCNC(=O)Nc1cnns1 (stereo not drawn) [TD-DHZ, N-(4-hydroxy-3-methyl-butyl)-N′-1,2,3-thiadiazol-5-yl-urea]
times less active than DHZ in tobacco callus assay [1]: 10 times | EC50 [2, 11]: 43 µM

EC50 [1, 10]: 0.01 µM | IC50 [3, 12]: 13 µM | EC50 [7, 19]: 32 µM | EC50 [8, 20]: 0.19 µM
Compound: C/C(=C\CNC(=O)Nc1cnns1)CO [TD-tZ, N-[(E)-4-hydroxy-3-methyl-but-2-enyl]-N′-1,2,3-thiadiazol-5-yl-urea]
inhibition of callus growth at the highest concentration tested [1]: did not inhibit the growth of callus | EC50 [2, 11]: 1.5 µM | EC50 ([5]; transgenic Arabidopsis plants): 0.52 µM

EC50 [1, 10]: 0.017 µM | IC50 [3, 12]: 93 µM | EC50 [7, 19]: 9.4 µM | EC50 [8, 20]: 1.4 µM
Compound: CC(C)=CCNC(=O)Nc1cnns1 [TD-iP, N-2-isopentenyl-N′-1,2,3-thiadiazol-5-yl-urea]
inhibition of callus growth at the highest concentration tested [1]: did not inhibit the growth of callus | EC50 [2, 11]: 1.1 µM | EC50 ([5]; transgenic Arabidopsis plants): 0.065 µM

Further lines, the compound ahead of its results:

Compound: c1ccc(CNc2ncnc3nc[nH]c23)cc1 [BA, N^6-benzyladenine, reference compound]
EC50 [1, 10]: 0.06 µM | EC50 [2, 11]: 0.75 µM | IC50 [3, 12]: > 100 µM | % more of chlorophyll retained than DMSO (negative control) [4]: 65% | EC50 ([5]; transgenic Arabidopsis plants): 0.076 µM

Compound: COCCN(C)C(=O)Nc1cnns1 [Compound 6]
Tobacco callus bioassay (EC50, μM) [1, 13]: completely inactive | Amaranthus bioassay (EC50, μM) [2, 14]: inactive | IC50 [3, 12]: 25 µM

Compound: COC(=O)CNC(=O)Nc1cnns1 [Compound 9]
EC50 [1, 10]: 70 µM | EC50 [2, 11]: > 100 µM | IC50 [3, 12]: > 100 µM

Compound: CC(O)CNC(=O)Nc1cnns1 (stereo not drawn) [Compound 5]
EC50 [1, 10]: 7.1 µM | Amaranthus bioassay (EC50, μM) [2, 14]: inactive | ARR5:GUS activity, % of BA activity ([5]; compound at 10 μM): 55–65%

Compound: C/C(=C/CNc1ncnc2nc[nH]c12)CO [cis-zeatin, reference compound]
IC50 [9]: ~300 µM | IC50 in WLSA, fold higher than IC50 of ASES [3]: 300 fold | IC50 in WLSA, fold higher than IC50 of tZ [3]: 10 fold

Compound: O=C(NCCO)Nc1cnns1 [Compound 1]
EC50 [1, 10]: 15 µM | Amaranthus bioassay (EC50, μM) [2, 14]: inactive | IC50 [3, 12]: 26 µM

Compound: COCCCNC(=O)Nc1cnns1 [Compound 4]
EC50 [1, 10]: 2.2 µM | EC50 [2, 11]: 16.7 µM | IC50 [3, 12]: 19 µM

Compound: O=C(NCCCl)Nc1cnns1 [Compound 14]
EC50 [1, 15]: 0.87 µM | Tobacco callus bioassay (EC50, μM) [1, 13]: sub-micromolar range | EC50 [2, 16]: 10.8 µM | IC50 [3, 17]: 14 µM | ARR5:GUS activity, % of BA activity ([5]; compound at 1 μM): 65% | EC50 [8]: 15 µM

Compound: COCCN(CCOC)C(=O)Nc1cnns1 [Compound 7]
Tobacco callus bioassay (EC50, μM) [1, 13]: completely inactive | Amaranthus bioassay (EC50, μM) [2, 14]: inactive | IC50 [3, 12]: 62 µM | ARR5:GUS activation (in words) [5]: completely inactive

Compound: COC(CNC(=O)Nc1cnns1)OC [Compound 8]
EC50 [1, 10]: 2.4 µM | EC50 [2, 11]: 16.7 µM | ARR5:GUS activity, % of BA activity ([5]; compound at 10 μM): 55–65%

Compound: COCC(C)NC(=O)Nc1cnns1 (stereo not drawn) [Compound 10]
EC50 [1, 10]: 3.1 µM | EC50 [2, 11]: 26.5 µM | IC50 [3, 12]: < 10 µM | IC50 [3, 18]: 8.6 µM

Compound: O=C(NCCCO)Nc1cnns1 [Compound 2]
EC50 [1, 10]: 7 µM | EC50 [2, 11]: 75.5 µM | IC50 [3, 12]: < 10 µM | IC50 [3, 18]: 8 µM
